{
  "source": "patent US20080241273A1",
  "about": "“MASTIC GUM COMPOSITION FOR USE AS A DIETARY SUPPLEMENT IN HUMANS AND ANIMALS” (INTACT ENTERPRISES, INC., priority 2005, published 2008)",
  "origin": "cited, not measured here",
  "key": {"[1]": {"conditions": "hydrochloric acid titrated to a pH between 6 and 7"}, "[2]": {"conditions": "healthy individuals, oral"}, "[3]": {"conditions": "6 mg/kg daily orally for up to 60 days"}, "[4]": {"conditions": "infusion, patients with lowered ionized magnesium"}, "[5]": {"conditions": "oral, six weeks, daily dose of 15 mmol"}, "[6]": {"conditions": "dogs"}, "[7]": {"conditions": "type 1 and type 2 diabetes"}},
  "data": [
    {"compound": "magnesium citrate", "values": [
      {"measurement": "reprecipitation", "setting": "[1]", "value": "did not occur"},
      {"measurement": "in vivo absorption (rise in urinary magnesium levels)", "setting": "[2]", "value": "absorbed to a much greater extent than the oxide"}
    ]},
    {"compound": "[Mg+2]", "note": "[magnesium]", "values": [
      {"measurement": "serum concentrations of calcium, magnesium, parathyroid hormone, calcitriol, osteocalcin", "setting": "[3]", "value": "increased significantly"},
      {"measurement": "relief of acute migraine", "setting": "[4]", "value": "rapid and sustained relief"}
    ]},
    {"compound": "[O]=[Mg]", "note": "[magnesium oxide]", "values": [
      {"measurement": "reprecipitation", "setting": "[1]", "value": "did not occur"}
    ]},
    {"compound": "magnesium lactate citrate", "values": [
      {"measurement": "bioavailability", "setting": "[5]", "value": "satisfactory"}
    ]},
    {"compound": "C[C@H](O)C(=O)[O-].C[C@H](O)C(=O)[O-].O.O.[Mg+2]", "note": "[magnesium L-lactate dihydrate]", "values": [
      {"measurement": "bioavailability under decreased acidity", "setting": "[6]", "value": "did not impair"}
    ]},
    {"compound": "O=S(=O)([O-])[O-].[O]=[V+2]", "note": "[vanadyl sulfate]", "values": [
      {"measurement": "blood sugar", "setting": "[7]", "value": "reduced"},
      {"measurement": "insulin sensitivity", "setting": "[7]", "value": "improved"}
    ]}
  ]
}
